{
  "source": "patent US20040022780A1",
  "about": "“Serine protease and topical retinoid compositions useful for treatment of acne vulgarise and production of anti-aging effects” (priority 1997, published 2004)",
  "test_system": "Rhino mouse skin",
  "test": "Histology after suboptimal trypsin, all-trans retinoic acid or both",
  "type": "in vivo",
  "settings": "suboptimal dose alone: 0.005% (w/v) trypsin or 0.0005% (w/v) all-trans retinoic acid",
  "experimental": "A first set of Rhino mice of Example 1 were treated with suboptimal doses of the trypsin composition of Example 2. […] A second set of Rhino mice of Example 1 were treated with suboptimal concentrations of the all-trans retinoic acid composition of Example 2. A third set of Rhino mice of Example 1 were treated with both suboptimal doses of the trypsin composition of Example 2 and the all-trans retinoic acid composition of Example 2. In this third set of Rhino mice, the trypsin and all-trans retinoic acid treatments were each administered daily, but at different times (i.e. trypsin in the morning and all-trans retinoic acid in the afternoon). Mice were sacrificed and their skins were examined histologically with the procedure set forth in Example 3.",
  "data": [
    {"compound": "CC1=C(/C=C/C(C)=C/C=C/C(C)=C/C(=O)O)C(C)(C)CCC1", "note": "[all-trans retinoic acid, reference compound]", "values": [
      {"measurement": "skin histology of treatment given alone vs untreated skin", "value": "marked inprovement"}
    ]}
  ]
}
